In patent publication US20070249725A1, “Pharmaceutical formulations of sympathetic antagonist for the treatment of chronic muscle pain” (priority 2006, published 2007):
Counter-ions that a name gives are not always drawn.

Assay: Adverse events in subjects treated by trigger point injection (Example 1)
Format: in vivo, human
Description: A total of 326 male and female subjects, approximately 15 to 85 years old with pain of 4-72 month duration were treated with various doses of phenoxybenzamine. If a potential subject had pain that was clearly muscular and clearly not due to arthritis, nerve root compression or other extramuscular cause, the subject was considered a candidate for phenoxybenzamine hydrochloride injection. Trigger points were identified by palpation. A monopolar EMG needle was then inserted into the trigger point. Another monopolar EMG needle was inserted into a nearby nontender fibers of the same muscle. […] The treatment was repeated in up to 10-12 trigger points per treatment session. Subjects could return for up to 6 treatment sessions, depending on the extent of their pain. The initial treatment was with a dose of 25 mg of phenoxybenzamine hydrochloride in an injection volume of 2 ml. […] For 318 subjects, data were available for analysis for the doses of phenoxybenzamine hydrochloride used, efficacy and incidence of serious adverse events.
The frequencies of other adverse events occurring in the first 199 subjects treated, including the first 87 subjects treated with the 3 mg dose, are given in the table below. Results with an additional 131 subjects treated with the 3 mg dose have been similar.

[1] = 10-25 mg, single injection, N 23

CC(COc1ccccc1)N(CCCl)Cc1ccccc1 (stereo not shown) [Phenoxybenzamine Hydrochloride, phenoxybenzamine hydrochloride]
Burning, number of subjects [1]: 1 | Cold sensation, % of subjects [1]: (4%) | Cold sensation, number of subjects [1]: 1 | Diaphoresis, % of subjects [1]: (0%) | Diarrhea, % of subjects [1]: (0%) | Dizziness, % of subjects [1]: (0%) | Dry mouth, % of subjects [1]: (0%) | Dysphagia, % of subjects [1]: (4%) | Dysphagia, number of subjects [1]: 1 | Dyspnea, % of subjects [1]: (0%) | Epistaxis, % of subjects [1]: (4%) | Epistaxis, number of subjects [1]: 1 | Fatigue, % of subjects [1]: (4%) | Fatigue, number of subjects [1]: 1 | Fever, % of subjects [1]: (0%) | Flu syndrome, % of subjects [1]: (0%) | Hair disorder, % of subjects [1]: (0%) | Headache, % of subjects [1]: (0%) | Hypesthesia, % of subjects [1]: (9%) | Hypesthesia, number of subjects [1]: 2 | Injection site drainage, % of subjects [1]: (0%) | Injection site soreness, % of subjects [1]: (35%) | Injection site soreness, number of subjects [1]: 8 | Injection site swelling, % of subjects [1]: 26% | Injection site swelling, number of subjects [1]: 6 | Lethargy, % of subjects [1]: (0%) | Lightheadedness, % of subjects [1]: (4%) | Lightheadedness, number of subjects [1]: 1 | Nasal disorder, % of subjects [1]: (9%) | Nasal disorder, number of subjects [1]: 2 | Nausea, % of subjects [1]: (0%) | Pain, % of subjects [1]: (26%) | Pain, number of subjects [1]: 6 | Palpitations, % of subjects [1]: (0%) | Paresthesia, % of subjects [1]: (0%) | Pharyngitis, % of subjects [1]: (0%) | Pruritis, % of subjects [1]: (0%) | Rash, % of subjects [1]: 4% | Rash, number of subjects [1]: 1 | Stiffness, % of subjects [1]: (13%) | Stiffness, number of subjects [1]: 3 | Swelling, % of subjects [1]: (0%) | Syncope, % of subjects [1]: (0%) | Tachycardia, % of subjects [1]: (4%) | Tachycardia, number of subjects [1]: 1 | Taste disorder, % of subjects [1]: (4%) | Taste disorder, number of subjects [1]: 1 | Tremor, % of subjects [1]: (0%) | Vomiting, % of subjects [1]: (0%) | Bruising at injection site, % of subjects (Total of all doses, N 199): (6%) | Bruising at injection site, number of subjects (Total of all doses, N 199): 11 | Burning, % of subjects (Total of all doses, N 199): (2%) | Burning, number of subjects (Total of all doses, N 199): 4 | Cold sensation, % of subjects (Total of all doses, N 199): (1%) | Cold sensation, number of subjects (Total of all doses, N 199): 2 | Diaphoresis, % of subjects (Total of all doses, N 199): (0%) | Diaphoresis, number of subjects (Total of all doses, N 199): 1 | Diarrhea, % of subjects (Total of all doses, N 199): (1%) | Diarrhea, number of subjects (Total of all doses, N 199): 2 | Dizziness, % of subjects (Total of all doses, N 199): (11%) | Dizziness, number of subjects (Total of all doses, N 199): 21 | Dry mouth, % of subjects (Total of all doses, N 199): (0%) | Dry mouth, number of subjects (Total of all doses, N 199): 1 | Dysphagia, % of subjects (Total of all doses, N 199): (0%) | Dysphagia, number of subjects (Total of all doses, N 199): 1 | Dyspnea, % of subjects (Total of all doses, N 199): (2%) | Dyspnea, number of subjects (Total of all doses, N 199): 4 | Epistaxis, % of subjects (Total of all doses, N 199): (0%) | Epistaxis, number of subjects (Total of all doses, N 199): 1 | Fatigue, % of subjects (Total of all doses, N 199): (4%) | Fatigue, number of subjects (Total of all doses, N 199): 8 | Fever, % of subjects (Total of all doses, N 199): (0%) | Fever, number of subjects (Total of all doses, N 199): 1 | Flu syndrome, % of subjects (Total of all doses, N 199): (1%) | Flu syndrome, number of subjects (Total of all doses, N 199): 2 | Hair disorder, % of subjects (Total of all doses, N 199): (0%) | Hair disorder, number of subjects (Total of all doses, N 199): 1 | Headache, % of subjects (Total of all doses, N 199): (6%) | Headache, number of subjects (Total of all doses, N 199): 12 | Hypesthesia, % of subjects (Total of all doses, N 199): (3%) | Hypesthesia, number of subjects (Total of all doses, N 199): 6 | Injection site drainage, % of subjects (Total of all doses, N 199): (1%) | Injection site drainage, number of subjects (Total of all doses, N 199): 2 | Injection site soreness, % of subjects (Total of all doses, N 199): (30%) | Injection site soreness, number of subjects (Total of all doses, N 199): 59 | Injection site swelling, % of subjects (Total of all doses, N 199): 33% | Injection site swelling, number of subjects (Total of all doses, N 199): 66 | Lethargy, % of subjects (Total of all doses, N 199): (0%) | Lethargy, number of subjects (Total of all doses, N 199): 1 | Lightheadedness, % of subjects (Total of all doses, N 199): (7%) | Lightheadedness, number of subjects (Total of all doses, N 199): 13 | Nasal disorder, % of subjects (Total of all doses, N 199): (2%) | Nasal disorder, number of subjects (Total of all doses, N 199): 4 | Nausea, % of subjects (Total of all doses, N 199): (9%) | Nausea, number of subjects (Total of all doses, N 199): 18 | Pain, % of subjects (Total of all doses, N 199): (5%) | Pain, number of subjects (Total of all doses, N 199): 10 | Palpitations, % of subjects (Total of all doses, N 199): (0%) | Palpitations, number of subjects (Total of all doses, N 199): 1 | Paresthesia, % of subjects (Total of all doses, N 199): (2%) | Paresthesia, number of subjects (Total of all doses, N 199): 3 | Pharyngitis, % of subjects (Total of all doses, N 199): (0%) | Pharyngitis, number of subjects (Total of all doses, N 199): 1 | Pruritis, % of subjects (Total of all doses, N 199): (0%) | Pruritis, number of subjects (Total of all doses, N 199): 1 | Rash, % of subjects (Total of all doses, N 199): 2% | Rash, number of subjects (Total of all doses, N 199): 3 | Stiffness, % of subjects (Total of all doses, N 199): (3%) | Stiffness, number of subjects (Total of all doses, N 199): 6 | Swelling, % of subjects (Total of all doses, N 199): (1%) | Swelling, number of subjects (Total of all doses, N 199): 2 | Syncope, % of subjects (Total of all doses, N 199): (3%) | Syncope, number of subjects (Total of all doses, N 199): 6 | Tachycardia, % of subjects (Total of all doses, N 199): (0%) | Tachycardia, number of subjects (Total of all doses, N 199): 1 | Taste disorder, % of subjects (Total of all doses, N 199): (2%) | Taste disorder, number of subjects (Total of all doses, N 199): 4 | Tremor, % of subjects (Total of all doses, N 199): (1%) | Tremor, number of subjects (Total of all doses, N 199): 2 | Vomiting, % of subjects (Total of all doses, N 199): (4%) | Vomiting, number of subjects (Total of all doses, N 199): 7
